This note sets out measurements from paper doi:10.1101/2021.06.18.449075v2, “Understanding the mechanism of monoADP ribosylation in OsSRT1 and its linkage to DNA repair system under stress conditions” (biorxiv, 2021).

Assay [1] has as its target T1, OsSRT1 (Oryza sativa, UniProt B8ARK7).
T1 construct: gene SRT1; OsSRT1 gene (483 aa) in pET30a (BamHI/EcoRI), His-tagged, E. coli BL21(DE3), HisTrap purified; tag removal not mentioned
T1 sequence (B8ARK7 1-483): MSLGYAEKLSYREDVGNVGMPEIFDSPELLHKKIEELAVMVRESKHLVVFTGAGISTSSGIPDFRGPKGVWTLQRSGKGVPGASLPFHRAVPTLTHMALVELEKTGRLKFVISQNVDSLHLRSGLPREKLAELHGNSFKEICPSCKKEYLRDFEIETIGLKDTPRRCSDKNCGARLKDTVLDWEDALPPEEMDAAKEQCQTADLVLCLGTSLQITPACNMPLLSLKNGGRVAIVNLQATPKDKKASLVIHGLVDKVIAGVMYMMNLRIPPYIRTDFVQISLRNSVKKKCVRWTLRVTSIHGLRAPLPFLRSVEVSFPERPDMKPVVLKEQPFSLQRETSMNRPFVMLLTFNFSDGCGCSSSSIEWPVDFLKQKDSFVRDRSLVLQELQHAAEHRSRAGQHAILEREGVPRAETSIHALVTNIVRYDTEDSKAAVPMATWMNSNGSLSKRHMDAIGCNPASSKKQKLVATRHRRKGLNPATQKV
Briefly: auto-ADP-ribosylation, anti-biotin western blot. It counts as biochemical. (A western blot detects proteins with antibodies after separation by electrophoresis.)

Assay [2] concerns the target T1, OsSRT1. Description: auto-ADP-ribosylation, anti-biotin dot blot, Michaelis-Menten fit. It counts as biochemical. As to conditions: 6 nM OsSRT1, 0-100 µM Bio-NAD+, pH 7.5, 25°C; auto-ADPr without H3; labelled compound.

Usually IC50 stands for the concentration that inhibits the measured activity by half. A higher IC50 goes with weaker potency. For orientation: Km means the concentration of substrate that gives half-maximal velocity.

Where two headings read alike, the source gives them in different places.

For `Nc1ncnc2c1ncn2[C@@H]1O[C@H](COP(=O)(O)OP(=O)(O)OC[C@H]2OC(O)[C@H](O)[C@@H]2O)[C@@H](O)[C@H]1O` (stereo partly shown) [ADP-ribose], in assay [1] (auto-ADPr with Bio-NAD+, standard buffer 50 mM Tris pH 7.5, 150 mM NaCl, 10 mM DTT, 75 μM NAD+, 40 μM Bio-NAD+, 25°C, 1 h, product inhibition), the 50% inhibitory concentration (IC50) came to 18 ± 4 µM. In assay [1], `NC(=O)c1cccnc1` [nicotinamide] showed an IC50 of 26 ± 2 µM.

The compound `O=C(O)c1cccnc1` [nicotinic acid] registered a 50% inhibitory concentration (IC50) in assay [1] of 32 ± 4 µM. As to Bio-NAD^+, the Km in assay [2] is 37.4 ± 4 µM.
